Columns and labels:
[1] = test system: fibroblasts; test: Antiproliferative assay (inhibition of cell proliferation, procedure of Pledger et al.); type: cell-based; conditions: for EC50: Fibroblast; for Antiproliferative Assay Data Inhibition (%): percent inhibition at the maximum concentration tested
Source text: The compounds of Formula I are active as inhibitors of cell proliferation as shown in Table 1 by the test procedure described in Pledger W.J., Stiles C.D., Antniades H.N., Scher C.D., (Proc. Natl. Acad. Sci (USA) (1977). In addition, various compounds of Formula I are also inhibitors of ADP induced platelet aggregation and are useful in the prevention or treatment of thrombotic diseases and related complications by, for example, inhibition or reversal of platelet aggregation, or platelet adhesion or blood coagulation. […]

[2] = test system: ADP induced platelet aggregation; test: Inhibition of ADP-induced platelet aggregation (procedure of Born and Cross); type: cell-based; conditions: for inhibition at 10 µg/mL: read-out: Inhibition of Platelet Aggregation 10 ug/ml; for inhibition at 30 µg/mL: read-out: Inhibition of Platelet Aggregation 30 ug/ml
Protocol: Most compounds of Formula I are active as inhibitors of platelet aggregation as shown in Table 1 by the test procedure described in Born, G.R., Cross M.J., J. Physiol., 168, p. 178 (1963).
Also, reported is the percent inhibition of platelet aggregation at 10ug/ml and 30 ug/ml concentrations.

In the case of `O=c1cc(-c2ccc(OCc3cccnc3)cc2)oc(N2CCOCC2)c1` [Compound 5, 2-(4-Morpholinyl)-6-(4-(3-pyridinylmethoxy)phenyl)-4H-pyran-4-one], the EC50 [1] is reported as 11.2 µM, the “Antiproliferative Assay Data Inhibition (%)” value [1] is reported as 77% and the inhibition at 10 µg/mL [2] is reported as 40%. It also gave an inhibition at 30 µg/mL [2] of 55%.
For `O=c1cc(CN2CCOCC2)oc(-c2ccc(O)cc2)c1` [Compound 14, 2-(4-hydroxyphenyl)-6-(4-morpholinylmethyl)-4H-pyran-4-one], the “antiproliferation or inhibition activity (in words)” value [1] was “no measurable antiproliferation or inhibition activity”, the “Antiproliferative Assay Data Inhibition (%)” value [1] was 0% and the inhibition at 10 µg/mL [2] was 0%. It also gave an inhibition at 30 µg/mL [2] of 0%.
With `O=c1cc(-c2ccc(CN3CCCCC3)cc2)oc(N2CCOCC2)c1` [Compound 18, 2-(4-morpholinyl)-6-(4-(1-piperidinylmethyl)phenyl)-4H-pyran-4-one] the “Antiproliferative Assay Data Inhibition (%)” value [1] was 8%, the inhibition at 10 µg/mL [2] was 10% and the inhibition at 30 µg/mL [2] was 18%.
For `O=c1cc(-c2ccccc2O)oc(N2CCOCC2)c1` [Compound 10, 2-(2-Hydroxyphenyl)-6-(4-morpholinyl)-4H-pyran-4-one], the EC50 [1] was 62.2 µM and the “Antiproliferative Assay Data Inhibition (%)” value [1] was 34%.
For `O=c1cc(-c2ccc(CO)cc2)oc(N2CCOCC2)c1` [Compound 17, 2-(4-(hydroxymethyl)phenyl)-6-(4-morpholinyl)-4H-pyran-4-one], the “Antiproliferative Assay Data Inhibition (%)” value [1] was 20%, the inhibition at 10 µg/mL [2] was 0% and the inhibition at 30 µg/mL [2] was 0%.
`O=c1cc(-c2cccc(O)c2)oc(N2CCOCC2)c1` [Compound 16, 2-(3-hydroxyphenyl)-6-(4-morpholinyl)-4H-pyran-4-one] was tested, and the EC50 [1] was 28.5 µM, the “Antiproliferative Assay Data Inhibition (%)” value [1] was 73% and the inhibition at 10 µg/mL [2] was 5%. It also gave an inhibition at 30 µg/mL [2] of 44%.
With `O=c1cc(-c2ccc(OCc3ccccn3)cc2)oc(N2CCOCC2)c1` [Compound 6, 2-(4-Morpholinyl)-6-(4-(2-pyridinylmethoxy)phenyl)-4H-pyran-one] the EC50 [1] was 14.8 µM, the “Antiproliferative Assay Data Inhibition (%)” value [1] was 72% and the inhibition at 10 µg/mL [2] was 25%. For the same compound, the inhibition at 30 µg/mL [2] was 40%.
`O=c1cc(-c2ccc(N3CCCCC3)cc2)oc(N2CCOCC2)c1` [Compound 24, 2-(4-Morpholinyl)-6-4-(1-piperidinyl)phenyl-4H-pyran-4-one] showed an EC50 [1] of 0.48 µM, an inhibition at 10 µg/mL [2] of 10% and an inhibition at 30 µg/mL [2] of 50%.
In the case of `CN1CCN(Cc2ccc(-c3cc(=O)cc(N4CCOCC4)o3)cc2)CC1` [Compound 20, 2-(4-((4-methyl-1-piperazinyl)methyl)phenyl)-6-(4-morpholinyl)-4H-pyran-4-one], the “Antiproliferative Assay Data Inhibition (%)” value [1] is reported as 9%, the inhibition at 10 µg/mL [2] is reported as 0% and the inhibition at 30 µg/mL [2] is reported as 20%.
`CC(C)(C)C(=O)COc1ccc(-c2cc(=O)cc(N3CCOCC3)o2)cc1` [Compound 4, 2-(4-(3,3-Dimethyl-2-oxobutoxy)phenyl)-6-(4-morpholinyl)-4H-pyran-4-one] was tested, and the EC50 [1] was 9.4 µM, the “Antiproliferative Assay Data Inhibition (%)” value [1] was 66% and the inhibition at 10 µg/mL [2] was 45%. For the same compound, the inhibition at 30 µg/mL [2] was 60%.
With `O=c1cc(CN2CCOCC2)oc(-c2ccc(OCc3ccccc3)cc2)c1` [Compound 12] the EC50 [1] was 41 µM, the “Antiproliferative Assay Data Inhibition (%)” value [1] was 36% and the inhibition at 10 µg/mL [2] was 0%. The inhibition at 30 µg/mL [2] was 0%.
`O=c1cc(-c2ccc(OCc3ccc4ccccc4n3)cc2)oc(N2CCOCC2)c1` [Compound 8, 2-(4-Morpholinyl)-6-(4-(2-quinolinylmethoxy)phenyl)-4H-pyran-4-one] showed an EC50 [1] of 6.8 µM, an inhibition at 10 µg/mL [2] of 35% and an inhibition at 30 µg/mL [2] of 35%.
`O=c1cc(-c2ccc(O)cc2)oc(N2CCOCC2)c1` [Compound 1, 2-(4-Hydroxyphenyl)-6-(4-morpholinyl)-4H-pyran-4-one] was tested, and the EC50 [1] was 29.4 µM, the “Antiproliferative Assay Data Inhibition (%)” value [1] was 54% and the inhibition at 10 µg/mL [2] was 75%. It also gave an inhibition at 30 µg/mL [2] of 95%.
For `O=c1cc(-c2ccc(OCCN3CCCCC3)cc2)oc(N2CCOCC2)c1` [Compound 7, 2-(4-Morpholinyl)-6-((4-(2-(1-piperidinyl)ethyl)oxy)phenyl)-4H-pyran-4-one], the EC50 [1] was over 31.2 µM, the “Antiproliferative Assay Data Inhibition (%)” value [1] was 30% and the inhibition at 10 µg/mL [2] was 60%. For the same compound, the inhibition at 30 µg/mL [2] was 70%.
In the case of `O=c1cc(CN2CCCCC2)oc(-c2ccc(OCc3ccccc3)cc2)c1` [Compound 13], the “Antiproliferative Assay Data Inhibition (%)” value [1] is reported as 20%, the inhibition at 10 µg/mL [2] is reported as 0% and the inhibition at 30 µg/mL [2] is reported as 0%.
`Nc1ccc(-c2cc(=O)cc(N3CCOCC3)o2)cc1` [Compound 25, 2-(4-Aminophenyl)-6-(4-morpholinyl)-4H-pyran-4-one] was tested, and the EC50 [1] was 18.7 µM, the inhibition at 10 µg/mL [2] was 45% and the inhibition at 30 µg/mL [2] was 55%.
`O=c1cc(-c2cccc(OCc3ccccc3)c2)oc(N2CCOCC2)c1` [Compound 15, 2-(4-morpholinyl)-6-(3-(phenylmethoxy)phenyl)-4H-pyran-4-one] was tested, and the EC50 [1] was 9.1 µM, the “Antiproliferative Assay Data Inhibition (%)” value [1] was 96% and the inhibition at 10 µg/mL [2] was 0%. It also gave an inhibition at 30 µg/mL [2] of 0%.
Compound `O=c1cc(-c2ccc(OCc3ccccc3)cc2)oc(N2CCOCC2)c1` [Compound 2] has an EC50 [1] of 6.9 µM, an inhibition at 10 µg/mL [2] of 10% and an inhibition at 30 µg/mL [2] of 15%.
For `O=c1cc(-c2ccc(CN3CCCCC3CO)cc2)oc(N2CCOCC2)c1` (stereo not shown) [Compound 21, 2-(4-((2-(hydroxymethyl)-1-piperidinyl)methyl)phenyl)-6-(4-morpholinyl)-4H-pyran-4-one], the “Antiproliferative Assay Data Inhibition (%)” value [1] was 13%, the inhibition at 10 µg/mL [2] was 10% and the inhibition at 30 µg/mL [2] was 10%.
With `O=c1cc(-c2ccc(F)cc2)oc(N2CCOCC2)c1` [Compound 22, 2-(4-Fluorophenyl)-6-(4-morpholinyl)-4H-pyran-4-one] the EC50 [1] was over 20 µM, the “Antiproliferative Assay Data Inhibition (%)” value [1] was 25% and the inhibition at 10 µg/mL [2] was 42%. For the same compound, the inhibition at 30 µg/mL [2] was 61%.
`O=c1cc(-c2ccccc2OCc2ccccc2)oc(N2CCOCC2)c1` [Compound 9, 2-(4-Morpholinyl)-6-(2-(phenylmethoxy)phenyl)-4H-pyran-4-one] was tested, and the EC50 [1] was 11.6 µM, the “Antiproliferative Assay Data Inhibition (%)” value [1] was 88% and the inhibition at 10 µg/mL [2] was 60%. For the same compound, the inhibition at 30 µg/mL [2] was 65%.
For `O=c1cc(-c2ccc(CN3CCCC3)cc2)oc(N2CCOCC2)c1` [Compound 19, 2-(4-morpholinyl)-6-(4-(1-pyrrolidinylmethyl)phenyl)-4H-pyran-4-one], the “Antiproliferative Assay Data Inhibition (%)” value [1] was 12%, the inhibition at 10 µg/mL [2] was 5% and the inhibition at 30 µg/mL [2] was 10%.
`CCCCC(Oc1ccc(-c2cc(=O)cc(N3CCOCC3)o2)cc1)c1ccccc1` (stereo not shown) [Compound 11, 2-(4-Morpholinyl)-6-(4-((1-phenylpentyl)oxy)phenyl)-4H-pyran-4-one] showed an EC50 [1] of 22.9 µM, an inhibition at 10 µg/mL [2] of 10% and an inhibition at 30 µg/mL [2] of 10%.
Compound `O=c1cc(-c2ccc(N3CCCC3)cc2)oc(N2CCOCC2)c1` [Compound 23, 2-(4-Morpholinyl)-6-4-(1-pyrrolidinyl)phenyl-4H-pyran-4-one] has an EC50 [1] of 0.25 µM, an inhibition at 10 µg/mL [2] of 20% and an inhibition at 30 µg/mL [2] of 50%.
For `O=c1cc(-c2ccccc2)oc(N2CCOCC2)c1` [Compound 3, 2-(4-Morpholinyl)-6-phenyl-4H-pyran-4-one], the EC50 [1] was 28 µM, the inhibition at 10 µg/mL [2] was 45% and the inhibition at 30 µg/mL [2] was 50%.

Source: EP0489877B1, “ANTIATHEROSCLEROTIC AND ANTITHROMBOTIC 2-AMINO-6-PHENYL-4H-PYRAN-4-ONES” (THE UPJOHN COMPANY, priority 1990, dated 1992)
